Test results as given in PubChem BioAssay (NCI).
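Results reflect a 48-hour exposure of cells in 96-well plates to compound at five concentrations. The concentration for 50% growth inhibition is given as GI50. At the TGI there is no net growth.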 Activity calls are given as the source filed them. Rule as the data show it: active = GI50 below about 0.43 µM; inactive = the rest.

test system: SNB-78 CNS; assay: growth of human tumour cells (NCI), 48 h

Row | Compound | TGI | GI50
1 | COc1ccc2c3c(coc13)C(CCC(=O)O)CC2 (stereo not drawn) | > 100 µM | 
2 | CS(=O)(=O)c1cc(=O)c2ccccc2s1 | 14 µM | 
3 | Cc1ccc2c(c1)CN(C(=O)CCC(=O)OCc1ccccc1)c1ccc(C)cc1CN2C(=O)CCC(=O)OCc1ccccc1 | > 100 µM | 
4 | O=c1[nH]c(=O)n(C2OC(CO)C(O)C(O)C2O)cc1F (stereo not drawn) | > 100 µM | 
5 | c1cc[c]([Pb]([c]2ccccc2)[c]2ccccc2)cc1 | > 100 µM | 13.2 µM
6 | CC(=O)N1C/C(=C\c2ccc(N(C)C)cc2)C(=O)/C(=C/c2ccc(N(C)C)cc2)C1 | > 100 µM | 
7 | COC1=CC2(C=CC1=O)c1cc(OC)c(OC)cc1CCN2C(=O)c1ccccc1 (stereo not drawn) | > 100 µM | 
8 | Cc1[nH]c2ccccc2c1C1Cc2ccccc2N1C(=O)/C(Cl)=C/c1ccccc1 (stereo not drawn) | > 100 µM | 

test system: LXFL 529 NSCLC; assay: growth of human tumour cells (NCI), 48 h

Row | Compound | TGI | outcome | GI50
9 | COc1ccc(/C(Cl)=C(\C=O)c2ccc([N+](=O)[O-])cc2)cc1 | > 27.6 µM |  | 
10 | Cc1ccc(-c2cc(=O)c3cc(C)c(C)c(C(=O)O)c3o2)cc1C | > 100 µM |  | 
11 | O=C(/C=C/c1c(O)ccc2ccccc12)c1ccccc1 | > 100 µM |  | 
12 | Cc1nc2ccccc2c(=O)n1-c1ccccc1F | > 100 µM |  | 
13 | Clc1ccc(-c2c(C3=NCCCN3)nnn2-c2ccc(Cl)cc2)cc1 | > 83.3 µM |  | 
14 | Fc1ccc(C2SCc3nc4ccccc4n32)cc1Cl (stereo not drawn) | 57.8 µM |  | 
15 | CC1=N/C(=C\c2cccc([N+](=O)[O-])c2)C(=O)O1 | > 100 µM |  | 
16 | CC(C)N1CN(C(C(=O)N[C@@H]2C(=O)N3C2SC(C)(C)C3C(=O)O)c2ccccc2)CSC1=S (stereo partly drawn) | > 100 µM |  | 
17 | CCCCOC(=O)NC(=O)c1cn(C2CCCCC2)c(=O)[nH]c1=O | 93 µM |  | 
18 | COc1cc2c(c(OC)c1)C1(CC(CC#N)C2)SCCS1 (stereo not drawn) | > 100 µM |  | 
19 | CCOC(=O)CCn1[nH]c(=O)c(Cl)c(Cl)c1=O | > 100 µM |  | 
20 | COc1ccc(CNc2nc3cc(C(F)(F)F)ccc3nc2C)cc1OC | > 100 µM |  | 
21 | C/C=C1/C(=C/c2[nH]c(/C=c3\[nH]/c(=C/C4=NC(=O)C(CC)=C4C)c(C)c3CCC(=O)O)c(CCC(=O)O)c2C)NC(=O)C1C (stereo not drawn) |  | inactive | 
22 | N#CCc1ccc(C(C#N)/C(CCCC(=O)Nc2cccc([N+](=O)[O-])c2)=N/NC(N)=S)cc1 (stereo not drawn) | > 100 µM |  | 
23 | CC(C)c1ccc(C(c2ccc(OCC(=O)O)cc2)c2ccc(C(C)C)cc(=O)c2O)c(O)c(=O)c1 | > 100 µM |  | 
24 | N#C/C(=C\c1cc2ccccc2c2ccccc12)c1ccccc1 | > 100 µM |  | 
25 | CCOc1ccc2c(c1)[n+]([O-])c(-c1nc3ccccc3s1)c(N)[n+]2[O-] | > 100 µM |  | 
26 | COc1ccc2c3c(coc13)C(CCC(=O)O)CC2 (stereo not drawn) | > 100 µM |  | 
27 | CS(=O)(=O)c1cc(=O)c2ccccc2s1 | 3.02 µM |  | 
28 | Cc1ccc2c(c1)CN(C(=O)CCC(=O)OCc1ccccc1)c1ccc(C)cc1CN2C(=O)CCC(=O)OCc1ccccc1 | > 100 µM |  | 
29 | O=c1[nH]c(=O)n(C2OC(CO)C(O)C(O)C2O)cc1F (stereo not drawn) | > 100 µM |  | 
30 | c1cc[c]([Pb]([c]2ccccc2)[c]2ccccc2)cc1 | 17.2 µM |  | 4.03 µM
31 | CC(=O)N1C/C(=C\c2ccc(N(C)C)cc2)C(=O)/C(=C/c2ccc(N(C)C)cc2)C1 | > 100 µM |  | 
32 | COC1=CC2(C=CC1=O)c1cc(OC)c(OC)cc1CCN2C(=O)c1ccccc1 (stereo not drawn) | > 100 µM |  | 
33 | Cc1[nH]c2ccccc2c1C1Cc2ccccc2N1C(=O)/C(Cl)=C/c1ccccc1 (stereo not drawn) | > 100 µM |  | 

test system: HOP-18 NSCLC; assay: growth of human tumour cells (NCI), 48 h

Row | Compound | TGI
34 | COc1ccc(/C(Cl)=C(\C=O)c2ccc([N+](=O)[O-])cc2)cc1 | > 100 µM
35 | Cc1ccc(-c2cc(=O)c3cc(C)c(C)c(C(=O)O)c3o2)cc1C | > 100 µM
36 | O=C(/C=C/c1c(O)ccc2ccccc12)c1ccccc1 | > 100 µM
37 | Cc1nc2ccccc2c(=O)n1-c1ccccc1F | > 100 µM
38 | Clc1ccc(-c2c(C3=NCCCN3)nnn2-c2ccc(Cl)cc2)cc1 | > 100 µM
39 | CC1=N/C(=C\c2cccc([N+](=O)[O-])c2)C(=O)O1 | > 100 µM
40 | CC(C)N1CN(C(C(=O)N[C@@H]2C(=O)N3C2SC(C)(C)C3C(=O)O)c2ccccc2)CSC1=S (stereo partly drawn) | > 100 µM
41 | CC(C)c1cc2c(O)c(c1)Cc1cc(C(C)C)cc(c1O)Cc1cc(C(C)C)cc(c1O)Cc1cc(C(C)C)cc(c1O)C2 | > 100 µM
42 | COc1ccc(/C=C\c2cc(OC)c(OC)c(OC)c2)cc1OC(=O)NCCN(C)C | > 100 µM
43 | CCCCOC(=O)NC(=O)c1cn(C2CCCCC2)c(=O)[nH]c1=O | 49.4 µM
44 | COc1cc2c(c(OC)c1)C1(CC(CC#N)C2)SCCS1 (stereo not drawn) | > 100 µM
45 | CCOC(=O)CCn1[nH]c(=O)c(Cl)c(Cl)c1=O | > 100 µM
46 | Nc1ncn(C2CC(O)C(CO)O2)c(=O)n1 (stereo not drawn) | > 260 µM
47 | N#CCc1ccc(C(C#N)/C(CCCC(=O)Nc2cccc([N+](=O)[O-])c2)=N/NC(N)=S)cc1 (stereo not drawn) | > 100 µM
48 | CC(C)c1ccc(C(c2ccc(OCC(=O)O)cc2)c2ccc(C(C)C)cc(=O)c2O)c(O)c(=O)c1 | 55.6 µM
49 | N#C/C(=C\c1cc2ccccc2c2ccccc12)c1ccccc1 | > 61.2 µM
50 | CCOc1ccc2c(c1)[n+]([O-])c(-c1nc3ccccc3s1)c(N)[n+]2[O-] | 92.1 µM
51 | COc1ccc2c3c(coc13)C(CCC(=O)O)CC2 (stereo not drawn) | > 100 µM
